Patent publication EP0065874A1, “2-Aminophenol derivatives, methods for their preparation and composition containing the same” (ONO PHARMACEUTICAL CO., LTD., priority 1981, dated 1982)
Where a name gives a salt, the structure may show the parent alone.

system: cyclooxygenase; experiment: Standard assay system using polymorphonuclear leukocytes: inhibition of HHT or TXB2 production from [1-14C] arachidonic acid; format: cell-based; details: polymorphonuclear leukocytes from guinea pig (4 x 10^7 cells), 5 minutes at 30°C, read-out: concentrations for 50% inhibitions on cyclooxygenase
Experimental: The experiments for screening using polymorphonuclear leukocytes was carried out as follows: The reaction mixture (0.1 ml) containing 5 umole of potassium phosphate at pH 7.4, 0.1 µmole of calsium chloride, polymorphonuclear leukocytes prepared from guinea pigs (4 x 10^7 cells) and test compound was preincubated for 5 minutes at 30°C. The reaction was started by the addition of [^1-14C] arachidonic acid ([…] dpm, 1.8 nmole), followed by the incubation at 30°C for 5 minutes. The reaction was terminated by the addition of 0.3 ml of mixture of ether/ methanol/lM citric acid (30/4/1). The organic phase (20 µl) was applied to silica gel plate. Thin layer chromatography was performed to separate each product with solvent system of ether/petroleum ether/acetic acid (85/15/0.1).
Activity of 5-lipoxygenase and cyclooxygenase were calculated from the measurement of the radioactivity corresponding to 5-HETE and 12L-hydroxy-5,8,10-heptareienoic acid (i.e. HHT) or thromboxane B2 (i.e. TXB2). [it have been known that HHT and TXB2 were the last products of the system concerning cyclooxygenase in the arachidonate cascade] Further, it was determined that the concentrations of 50% inhibitions to produce 5-HETE and HHT or TXB2 for the 50% inhibiting concentrations of 5-lipoxygenase and cyclooxygenase, respectively.

With `Nc1cc(F)cc(C(O)c2ccc(Cl)cc2)c1O` (stereo not drawn) [3-Amino-4'-chloro-5-fluoro-2-hydroxybenzhydrol hydrochloride] as the molecule, how does the IC50 read?
Its IC50 is 7.2 µM.

How did the IC50 turn out when `Nc1cc(Cl)cc(C(=O)c2ccc(Cl)cc2)c1O` [3-Amino-5,4'-dichloro-2-hydroxybenzophenone] was run?
The IC50 was 3 µM.

`CC(C)(C)c1cc(N)c(O)c(C(O)c2ccc(Cl)cc2)c1` (stereo not drawn) [3-Amino-5-t-butyl-4'-chloro-2-hydroxybenzhydrol hydrochloride] was tested. Which IC50 did it give?
The IC50 was 100 µM.

For `Nc1cc(F)cc(C(=O)c2ccc(Cl)cc2)c1O` [3-Amino-4'-chloro-5-fluoro-2-hydroxybenzophenona], which IC50 is on record?
Its IC50 is 2 µM.

system: mice; experiment: Acute toxicity by intravenous injection; format: in vivo; details: intravenous injection to tail vein, doses of 10 mg/Kg and 30 mg/Kg
Experimental: On the other hand, all extent of the compounds of the present invention were confirmed that their acute toxicities were more than 30 mg/Kg by intravenous injection. Therefore, the compounds of the present invention may be considered to be sufficiently safe and suitable for medical use.

With `COc1ccc(C(=O)c2cc(Cl)cc(N)c2O)cc1.Cl` [3-Amino-5-chloro-2-hydroxy-4'-methoxybenzophenone hydrochloride] as the molecule, how does the “dead case in 30 cases” value read?
The value was “no dead case”.

Which “dead case in 30 cases” value does the source give for `CCCCCCC(O)c1cc(C(C)(C)C)cc(N)c1O` (stereo not drawn) [2-Amino-4-t-butyl-6-(1-hydroxyheptyl)phenol] here?
The value was “no dead case”.
